Where a name gives a salt, the structure may show the parent alone.
Key:
[1] = system: RANTES production in response to TNF-α from A549 cells; assay: RANTES production in response to TNF-α from A549 cells; type: cell-based, human; conditions: Homo sapiens, A549, 24 h, 100 ng/ml TNF-α, compounds of about 40 to 90% purity, read-out: Cellular activity grade (A549, IC50)
human IKK-β = target: T1, human IKK-β (Homo sapiens, UniProt O14920); assay: IKK-β kinase inhibitory assay; type: biochemical; conditions: compounds of about 40 to 90% purity, read-out: In vitro activity grade (invitro, IC50)
T1 construct: A cDNA fragment encoding human IKK-β open reading frame was generated by PCR; His; made in house; host or cells: Sf21 insect cells (baculovirus); the GST-IκBα substrate was made in E. coli
T1 sequence (O14920 1-756): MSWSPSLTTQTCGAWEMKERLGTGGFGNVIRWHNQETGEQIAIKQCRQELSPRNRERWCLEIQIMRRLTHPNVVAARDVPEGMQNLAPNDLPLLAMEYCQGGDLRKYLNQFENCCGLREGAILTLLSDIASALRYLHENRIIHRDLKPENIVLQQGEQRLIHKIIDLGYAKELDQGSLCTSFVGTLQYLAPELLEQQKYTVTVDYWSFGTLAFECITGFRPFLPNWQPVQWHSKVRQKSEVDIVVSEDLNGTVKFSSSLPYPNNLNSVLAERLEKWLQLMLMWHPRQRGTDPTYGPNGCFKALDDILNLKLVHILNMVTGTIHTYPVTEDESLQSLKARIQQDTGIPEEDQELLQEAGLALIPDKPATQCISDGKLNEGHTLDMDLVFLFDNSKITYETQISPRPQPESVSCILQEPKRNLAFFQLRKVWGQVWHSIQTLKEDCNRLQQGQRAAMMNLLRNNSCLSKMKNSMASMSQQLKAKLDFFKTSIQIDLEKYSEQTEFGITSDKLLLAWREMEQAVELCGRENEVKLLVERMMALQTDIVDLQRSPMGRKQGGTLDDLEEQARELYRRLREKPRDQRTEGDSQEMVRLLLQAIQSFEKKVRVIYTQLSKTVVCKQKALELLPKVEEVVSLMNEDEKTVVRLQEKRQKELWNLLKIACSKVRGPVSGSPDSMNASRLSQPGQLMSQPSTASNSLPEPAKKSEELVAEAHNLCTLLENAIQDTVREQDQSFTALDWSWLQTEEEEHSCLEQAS
From the text: IKK-β Kinase Inhibitory Assay.
• (1) Preparation of IKK-β Kinase Protein. • A cDNA fragment encoding human IKK-β open reading frame was generated by PCR with the use of a pair of primers designed from the published sequence (Woronicz J D et al. (1997) Science 278,866-869). A template was obtained from Quickclone cDNA (Clontech) using Elongase™ Amplification kit (Life Technologies). The DNA fragments generated by PCR were gel-purified and subcloned into pBluescript. The cDNA fragment cloned in pBluescript was inserted into pcDNA3.1/His C KpnI/NotI, and transferred into pVL1393 SmaI/XbaI (Pharmingen) to construct a baculovirus transfer vector. Then the vector, together with the linearized baculovirus (BaculoGold™, Pharmingen) was used to transfect Sf21 cells (Invitrogen, San Diego, Calif.). Generated recombinant baculovirus was cloned and amplified in Sf21 cells, grown in TNM-FH insect cell medium (Life Technologies, Inc.) supplemented with 10% FCS, […] Gentamycin, 0.1% Pluronic F-68 (Life Technologies, Inc.) as suspension culture (200 ml in 1 L Erlenmeyer flask; 27° C.; 130 rpm). Sf21 cells were infected with this amplified virus with a multiplicity of infection of 5 following standard protocols (Crossen R, Gruenwald S (1997) Baculovirus Expression Vector System Instruction Manual, Pharmingen Corporation) and harvested 48 hrs. later. The cells were lysed to obtain the produced chimeric protein of IKK-β kinase fused by histidine (His-tagged IKK-beta). • (2) The Preparation of Purified GST-IκBα Fusion Proteins • An expression vector containing the nucleotide sequence encoding fusion protein of GST with amino acid residues 1 to 54 of IκBα under the control of an IPTG-inducible promoter was constructed. The expression vector was introduced in E. coli and the transformant was cultured and lysed to obtain a GST-IκBα fusion protein. Then the resulting GST-IκBα fusion protein was purified and biotinated for kinase assay. • (3) The Measurement of IKK-β Kinase Activity • The 96-well format kinase assay of IKK-β was performed to test the inhibitory activity of the compounds of the present invention. First, 5 μl of a test compound was put in the presence of 2.5% dimethyl sulfoxide (DMSO) in each well in a U-bottomed 96-well plate (Falcon). For control wells of background (BG) and total phosphorylation (TP), 5 μl of 2.5% DMSO was put. Recombinant IKK-β (final 0.6 μg/ml) and bio-GST-IκBα (1-54) (final 0.2 μM) were diluted in 25 μl of 2×kinase buffer β (40 mM Tris-HCl, pH 7.6, 40 mM MgCl2, 40 mM β-glycerophosphate, 40 mM p-nitrophenyl-phosphate, 2 mM EDTA, 40 mM creatine phosphate, 2 mM DTT, 2 mM Na3VO4, 0.2 mg/ml BSA and 0.8 mM phenylmethylsulfonyl fluoride) and transferred to the 96-well plate. Bio-GST-IκBα (1-54) in 25 μl of 2×kinase buffer β without IKK-β was transferred to BG wells. Then 20 μl of 12.5 μM ATP, 62.5 μCi/ml [γ-^33P] ATP (Amersham Pharmacia Biotech) was added and the resulting mixture was incubated for 2 hrs. at room temperature. The kinase reactions were terminated by the addition of 150 μl of termination buffer (100 mM EDTA, 1 mg/ml BSA, 0.2 mg NaN3). One handred and fifty μl of the sample was transferred to a streptavidin-coated, white MTP (Steffens Biotechniche Analysen GmbH #08114E14. FWD) to capture the biotinylated substrates. After 1 hr. of incubation, non-bound radioactivity was eliminated by washing the wells five times with 300 μl of washing buffer including 0.9% NaCl and 0.1% (w/v) Tween-20 with the use of a MW-96 plate washer (BioTec). The bound radioactivity was determined after the addition of 170 μl MicroScint-PS scintillation cocktail (Packard) using a TopCount scintillation counter. Syk Tyrosine Kinase Inhibitory Assay for Selectivity. • (1) Preparation of Syk Protein • A cDNA fragment encoding human Syk openreading frame was cloned from total RNA of human Burkitt's lymphoma B cell lines, Raji (American Type Culture Collection), with the use of RT-PCR method. […]

Row | IC50 [1] | IC50 (human IKK-β) | Structure (SMILES)
1 | 1000 to 10000 nM | 2000 to 10000 nM | N#Cc1c(-c2cccc(NC(=O)CCN3CCN(Cc4ccccc4)CC3)c2)cc(-c2ccccc2O)nc1N [Example 4-11]
2 | 1000 to 10000 nM | 500 to 2000 nM | N#Cc1c(-c2cccc(NC(=O)CN3CCCC3)c2)cc(-c2ccccc2O)nc1N [Example 4-23]
3 | 1000 to 10000 nM | 500 to 2000 nM | N#Cc1c(-c2cccc(NC(=O)CN3CCN(CCO)CC3)c2)cc(-c2ccccc2O)nc1N [Example 4-08]
4 | 1000 to 10000 nM | 2000 to 10000 nM | CS(=O)(=O)Nc1cccc(-c2cc(-c3ccccc3O)nc(N)c2C#N)c1 [Example 1-06]
5 | 1000 to 10000 nM | < 500 nM | N#Cc1c(-c2ccc(N3CCC(N)C3)c(NC(=O)CCN)c2)cc(-c2ccccc2O)nc1N (stereo not shown) [Example 3-02]
6 | > 10000 nM | > 10000 nM | N#Cc1c(-c2ccc(OCC3CC3)c(NC(=O)CN3CCCCC3)c2)cc(-c2ccccc2O)nc1N [Example 4-35]
7 | 1000 to 10000 nM | 2000 to 10000 nM | N#Cc1c(-c2cccc(NC(=O)CN3CCN(C(=O)c4ccco4)CC3)c2)cc(-c2ccccc2O)nc1N [Example 4-03]
8 | 1000 to 10000 nM | 2000 to 10000 nM | CN(C)c1ccc(NC(=O)CCN2CCCCC2)cc1-c1cc(-c2ccccc2O)nc(N)c1C#N [Example 3-09]
9 | > 10000 nM | 2000 to 10000 nM | COc1ccc(O)c(-c2cc(-c3cccc(NC(=O)C(O)CCC(=O)O)c3)c(C#N)c(N)n2)c1 (stereo not shown) [Example 1-18]
10 | 1000 to 10000 nM | 500 to 2000 nM | N#Cc1c(-c2cccc(NC(=O)CN3CCNCC3)c2)cc(-c2ccccc2O)nc1N [Example 4-07]
11 | 1000 to 10000 nM | 500 to 2000 nM | CC(C)C[C@H](N)C(=O)Nc1cc(-c2cc(-c3ccccc3O)nc(N)c2C#N)ccc1N1CCC[C@H]1CO [Example 3-11]
12 | > 10000 nM | 500 to 2000 nM | COc1cccc(O)c1-c1cc(-c2cccc(NC(=O)C(O)CCC(=O)O)c2)c(C#N)c(N)n1 (stereo not shown) [Example 1-13]
13 | 1000 to 10000 nM | < 500 nM | N#Cc1c(-c2ccc(Cl)c(NC(=O)CCN)c2)cc(-c2ccccc2O)nc1N [Example 2-13]
14 | 1000 to 10000 nM | 2000 to 10000 nM | COCCNCC(=O)Nc1cc(-c2cc(-c3ccccc3O)nc(N)c2C#N)ccc1OCC1CC1 [Example 4-32]
15 | 1000 to 10000 nM | < 500 nM | N#Cc1c(-c2ccc(N3CCC(NC(=O)C(F)(F)F)C3)c(NC(=O)CCN3CCCCC3)c2)cc(-c2ccccc2O)nc1N (stereo not shown) [Example 3-17]
16 | 1000 to 10000 nM | 500 to 2000 nM | N#Cc1c(-c2cccc(NC(=O)CN3CCN(C4CCCCC4)CC3)c2)cc(-c2ccccc2O)nc1N [Example 4-04]
17 | > 10000 nM | 2000 to 10000 nM | N#Cc1c(-c2cccc(NC(=O)C3CCC(=O)O3)c2)cc(-c2ncccc2O)nc1N (stereo not shown) [Example 1-20]
18 | > 10000 nM | 500 to 2000 nM | N#Cc1c(-c2cccc(NC(=O)CCCC(=O)O)c2)cc(-c2ccccc2O)nc1N [Example 1-19]

Row | IC50 [1] | IC50 (human IKK-β) | Structure (SMILES)
19 | > 10000 nM | 500 to 2000 nM | N#Cc1c(-c2ccccc2C(=O)O)cc(-c2ccccc2O)nc1N [Example 5-05]
20 | > 10000 nM | > 10000 nM | CCCCNCC(=O)Nc1cc(-c2cc(-c3ccccc3O)nc(N)c2C#N)ccc1OCC1CC1 [Example 4-33]
21 | > 10000 nM | < 500 nM | N#Cc1c(-c2ccc(NC(=O)C(O)CCC(=O)O)cc2)cc(-c2ccccc2O)nc1N (stereo not shown) [Example 1-10]
22 | 1000 to 10000 nM | < 500 nM | N#Cc1c(-c2cccc(NC(=O)CNCC3CC3)c2)cc(-c2ccccc2O)nc1N [Example 4-18]
23 | > 10000 nM | 2000 to 10000 nM | N#Cc1c(-c2cccc(NC(=O)CCN3CCC(C(=O)O)CC3)c2)cc(-c2ccccc2O)nc1N [Example 4-28]
24 | 1000 to 10000 nM | 500 to 2000 nM | CCN1CCN(CCC(=O)Nc2cccc(-c3cc(-c4ccccc4O)nc(N)c3C#N)c2)CC1 [Example 4-12]
25 | > 10000 nM | < 500 nM | N#Cc1c(-c2ccc(Cl)c(NC(=O)C(O)CCC(=O)O)c2)cc(-c2ccccc2O)nc1N (stereo not shown) [Example 1-15]
26 | 1000 to 10000 nM | 500 to 2000 nM | CCN1CCN(CC(=O)Nc2cccc(-c3cc(-c4ccccc4O)nc(N)c3C#N)c2)CC1 [Example 4-06]
27 | 1000 to 10000 nM | 500 to 2000 nM | CCN(CCO)c1ccc(-c2cc(-c3ccccc3O)nc(N)c2C#N)cc1NC(=O)CCN [Example 3-05]
28 | > 10000 nM | 500 to 2000 nM | N#Cc1c(-c2cccc(NC(=O)CCN3CCCCC3)c2)cc(-c2ncccc2O)nc1N [Example 2-17]
29 | 1000 to 10000 nM | 500 to 2000 nM | N#Cc1c(-c2cc(NC(=O)CCN3CCCCC3)ccc2F)cc(-c2ccccc2O)nc1N [Example 2-14]
30 | > 10000 nM | > 10000 nM | CC(=O)Nc1nc(-c2ccccc2O)cc(-c2cccc(NC(=O)CCN3CCCCC3)c2)c1C#N [Example 2-06]
31 | 1000 to 10000 nM | 500 to 2000 nM | N#Cc1c(-c2cccc(NC(=O)CCNCC3CC3)c2)cc(-c2ccccc2O)nc1N [Example 4-21]
32 | 1000 to 10000 nM | 2000 to 10000 nM | N#Cc1c(-c2cccc(C(=O)NCCN3CCCCC3)c2)cc(-c2ccccc2O)nc1N [Example 6-1, 3-[2-amino-3-cyano-6-(2-hydroxyphenyl)-4-pyridinyl]-N-[2-(1-piperidinyl)ethyl]benzamide trifluoroacetate]
33 | 1000 to 10000 nM | 500 to 2000 nM | N#Cc1c(-c2cccc(NC(=O)CCN3CCCCC3)c2)cc(-c2ccccc2O)nc1N [Example 2-1, N-{3-[2-amino-3-cyano-6-(2-hydroxyphenyl)-4-pyridinyl]phenyl}-3-(1-piperidinyl)propanamide hydrochloride]
34 | 1000 to 10000 nM | 500 to 2000 nM | N#Cc1c(-c2cccc(NC(=O)CNC3CCCC3)c2)cc(-c2ccccc2O)nc1N [Example 4-17]
35 | 1000 to 10000 nM | < 500 nM | COCCNCC(=O)Nc1cc(-c2cc(-c3ccccc3O)nc(N)c2C#N)ccc1N1CCC(NC(=O)C(F)(F)F)C1 (stereo not shown) [Example 4-37]

From patent US7410986B2, “4-6-diphenyl pyridine derivatives as antiinflammatory agents” (Bayer Aktiengesellschaft, priority 2000, dated 2008)
